# Results: patent US20060067924A1, “Probiotic bacteria and methods” (priority 2003, published 2006)
# “Also recorded” adds a separate entry of the source.
# Columns and labels:
# [1] = test system: bacterial flora of the chicken ileum; experiment: 16S rDNA clone library analysis of the ileal bacterial community of chickens fed diets with feed additives; format: in vivo
# [2] = test system: bacterial community of the chicken ileum; experiment: T-RFLP analysis (HaeIII) of amplified 16S rDNA from the ileum of chickens fed different diets; format: in vivo; settings: for main bacterial composition present in TRFLP peaks in ileum: names in order of relative abundance of peaks; for Clostridiales, % peak areas / Lactobacillaceae, % peak areas: T-RFLP
# Description: A comparative study of bacterial community of the chicken ileum was carried out using 16S rDNA gene analysis. The intestinal microbiota is part of a complex ecosystem. This study examined the effect of the growth promoting antibiotic, virginiamycin, and other commercial diets on the distribution and community structure of intestinal bacterial flora. Bacterial communities in the intestines of chickens were compared using terminal restriction fragment length polymorphism (T-RFLP) analysis targeting the 16S ribosomal DNA combining with 16S rDNA cloning library. The chickens were fed 4 different diets including a commercial corn-soy diet, corn-soy plus growth promotant diet, corn-soy plus monensin, and a wheat diet. A group was also administrated a probiotic at 1 day age and fed a corn-soy diet. After feeding of the birds with the experimental diets, the differences in the bacterial community structures in the ileum were detected in the form of different profiles of terminal restriction fragments (T-RFs). Some of the T-RFs were commonly distributed, i.e., they were found in all samples, while others varied in distribution and correlated with specific diets. Significant differences were found between the control group (corn-soy diet) and the experimental groups by pairwise-analyzing the T-RFs=profiles.
# The bacterial populations are identified using genetic analysis of the 16S RNA gene by GeneScan-Terminal Restriction Fragment Length Polymorphism (T-RFLP) using 16S universal primers and cloning and DNA sequencing of 16S PCR products. GeneScan T-RFLP requires the following steps: labeling the PCR product by using labeled primers; digesting the PCR product with restriction enzymes; separating fragments on gel; and detecting terminal fragments. The sizes of terminal fragments can be calculated based on DNA sequence analysis.
# In some experiments, the PCR products were loaded onto a gel from which bands were cut and eluted in 35 μl of sterile filtered distilled water using a QIAquick gel extraction kit (Qiagen, Chatsworth, Calif.). The concentrations of the fluorescently labeled PCR products were measured on a spectrophotometer (DU Series 500, Beckman, Fullerton, Calif.). About 100 ng of purified PCR products was digested in a 10 μl volume for 4 hours at 37 C with 10 U of HaeIII (isoschizomer BsuRI; Fermentas, MBI). Restriction digests were desalted with the QIAquick Nucleotide Removal Kit (Qiagen). The fluorescently labeled terminal restriction fragments (T-RFs) were analyzed by electrophoresis on an automatic sequence analyzer (ABI PRISM 310 DNA Sequencer; PE Biosystems, Foster City, Calif.) in GeneScan mode. Aliquots (2 ul) of T-RFs were mixed with 2 μl of deionized formamide, 0.5 μl of DNA fragment length size standard GS-500 (PE Biosystems). The T-RF mixture was denatured at 94° C. for 5 min and immediately chilled on ice prior to electrophoresis. After electrophoresis, the lengths of fluorescently labeled T-RFs were determined by comparison with internal standards by using GeneScan software (ABI). For each sample, peaks over a threshold of 50 units above background fluorescence were analyzed by manually aligning fragments to the size standard. To avoid detection of primers and uncertainties of size determination, terminal fragments smaller than 35 bp and larger than 525 bp were excluded from the analysis. Reproducibility of patterns was confirmed for repeated T-RFLP analysis of 16S gene amplification using the same DNA extracts from pooled samples.
# The information index (Shannon and Weaver (1963) “The Mathematical Theory of Communication,” p. 117, University of Illinois Press, Urbana, Ill.) was used to initially evaluate the diversity of the microbial communities. [formula] Where n is possible categories in a data set and that their proportions are pi, . . . , pn. The H values are the measure of diversity for this system. […]
# cecum flora = experiment: 16S rDNA clone library analysis of the cecum flora, monensin treatment; format: in vivo, chicken; settings: 28 d
# [3] = test system: Lachnospira multiparus-like organisms; settings: monensin supplementation; cited from earlier work
# [4] = pigs, 50 ppm, compared to controls; cited from earlier work
# [5] = ileum, 7 days of age, 16S rDNA clone library
# [6] = ileum, 28 days of age, 16S rDNA clone library
# [7] = vs control fed the same feed without the antibiotic
compound,measurement,setting,value
"CC[C@@]1([C@@H]2O[C@@H]([C@H]3O[C@@](O)(CO)[C@H](C)C[C@@H]3C)C[C@@H]2C)CC[C@H]([C@]2(C)CC[C@]3(C[C@H](O)[C@@H](C)[C@@H]([C@@H](C)[C@@H](OC)[C@H](C)C(=O)O)O3)O2)O1 [Monensin, monensin]",ileum flora: Clostridium spp.,[1]; 3 d,1 [17] %
same,ileum flora: L. crispatus,[1]; 3 d,1 [4] %
same,ileum flora: L. salivarius,[1]; 3 d,1%
same,ileum: Clostridiaceae,[1]; 3 d,2 [17] %
same,ileum: Enterococcus,[1]; 3 d,9 [3] %
same,ileum: Lactobacillus spp.,[1]; 3 d,3 [60] %
same,ileum: α-Proteobacteria,[1]; 3 d,1 [1] %
same,ileum: β-Proteobacteria,[1]; 3 d,3 [5] %
same,ileum: δ-Probeobacteria,[1]; 3 d,82 [2] %
same,ileum flora: C. irregularis,[1]; 7 d,45%
same,ileum flora: C. lituseburense,[1]; 7 d,24%
same,ileum flora: Clostridium spp.,[1]; 7 d,13 [1] %
same,ileum flora: L. acidophilus,[1]; 7 d,4 [57] %
same,ileum flora: L. crispatus,[1]; 7 d,4 [1] %
same,ileum flora: L. reuteri,[1]; 7 d,3%
same,ileum: Clostridiaceae,[1]; 7 d,84 [1] %
same,ileum: Enterococcus,[1]; 7 d,3 [16] %
same,ileum: Lactobacillus spp.,[1]; 7 d,11 [64] %
same,ileum flora: C. lituseburense,[1]; 14 d,31%
same,ileum flora: L. crispatus,[1]; 14 d,17 [8] %
same,ileum: Bifidobacter,[1]; 14 d,2%
same,ileum: Clostridiaceae,[1]; 14 d,44 [7] %
same,ileum: Enterococcus,[1]; 14 d,33 [13] %
same,ileum: Lactobacillus spp.,[1]; 14 d,21 [64] %
same,ileum flora: C. irregularis,[1]; 21 d,19%
same,ileum flora: C. lituseburense,[1]; 21 d,22%
same,ileum flora: L. crispatus,[1]; 21 d,19 [3] %
same,ileum flora: L. salivarius,[1]; 21 d,7 [5] %
same,ileum: Bacteroides,[1]; 21 d,2 [3] %
same,ileum: Clostridiaceae,[1]; 21 d,47 [9] %
same,ileum: Enterococcus,[1]; 21 d,11 [3] %
same,ileum: Lactobacillus spp.,[1]; 21 d,27 [66] %
same,ileum flora: C. irregularis,[1]; 28 d,53%
same,ileum flora: C. lituseburense,[1]; 28 d,7%
same,ileum flora: Clostridium spp.,[1]; 28 d,1 [6] %
same,ileum flora: L. crispatus,[1]; 28 d,17 [75] %
same,ileum flora: L. reuteri,[1]; 28 d,11 [7] %
same,ileum flora: L. salivarius,[1]; 28 d,2 [2] %
same,ileum: Bacillus,[1]; 28 d,1%
same,ileum: Clostridiaceae,[1]; 28 d,62 [7] %
same,ileum: Enterococcus,[1]; 28 d,1 [3] %
same,ileum: Lactobacillus spp.,[1]; 28 d,32 [88] %
same,ileum: Streptococcus,[1]; 28 d,1 [1] %
same,ileum flora: C. irregularis,[1]; 49 d,3%
same,ileum flora: C. lituseburense,[1]; 49 d,42%
same,ileum flora: Clostridium spp.,[1]; 49 d,1 [19] %
same,ileum flora: L. aviaries,[1]; 49 d,16%
same,ileum flora: L. crispatus,[1]; 49 d,20 [36] %
same,ileum flora: L. reuteri,[1]; 49 d,5 [1] %
same,ileum flora: L. salivarius,[1]; 49 d,3 [28] %
same,ileum: Bacillus,[1]; 49 d,5 [4] %
same,ileum: Bacteroides,[1]; 49 d,1 [1] %
same,ileum: Clostridiaceae,[1]; 49 d,46 [19] %
same,ileum: Enterococcus,[1]; 49 d,5 [2] %
same,ileum: Lactobacillus spp.,[1]; 49 d,45 [70] %
same,ileum: Streptococcus,[1]; 49 d,5%
same,"Clostridiales, % of seq",[1]; [5],82.4%
same,"Enterococcus/Streptococcus, % of seq",[1]; [5],2.7%
same,"Lactobacillaceae, % of seq",[1]; [5],12.9%
same,"Proteobacteria α, % of seq",[1]; [5],1.35%
same,"Bacillaceae, % of seq",[1]; [6],1.05%
same,"Clostridiales, % of seq",[1]; [6],63.2%
same,"Enterococcus/Streptococcus, % of seq",[1]; [6],2.1%
same,"Lactobacillaceae, % of seq",[1]; [6],31.6%
same,"Proteobacteria α, % of seq",[1]; [6],2.1%
same,clostridial sequences,[1]; [7],increased
same,overall numbers of Lactobacillus sequences,[1]; [7],reduced
same,main bacterial composition present in TRFLP peaks in ileum,[2]; 3 day,Enterococcus sp; also recorded: E. coli
same,main bacterial composition present in TRFLP peaks in ileum,[2]; 7 day,C. irregularis; also recorded: C. lituseburense; also recorded: L. acidophilus
same,main bacterial composition present in TRFLP peaks in ileum,[2]; 14 day,C. lituseburense; also recorded: C. irregularis; also recorded: Clostridium sp; also recorded: L. crispatus
same,main bacterial composition present in TRFLP peaks in ileum,[2]; 21 day,C. irregularis; also recorded: C. lituseburense; also recorded: L. crispatus
same,main bacterial composition present in TRFLP peaks in ileum,[2]; 28 day,C. irregularis; also recorded: L. crispatus; also recorded: L. reuteri
same,main bacterial composition present in TRFLP peaks in ileum,[2]; 49 day,C. lituseburense; also recorded: L. crispatus
same,inhibition of C. irregularis,[2]; chicken ileum,not inhibited
same,"Clostridiales, % peak areas","[2]; ileum, 7 days of age",92.89%
same,"Lactobacillaceae, % peak areas","[2]; ileum, 7 days of age",7.1%
same,"Clostridiales, % peak areas","[2]; ileum, 28 days of age",73.2%
same,"Lactobacillaceae, % peak areas","[2]; ileum, 28 days of age",27.2%
same,relative peak areas of Lactobacillus,"[2]; ileum, whole group (control 73.22%)",19.25%
same,cecum flora: Actinobacterium,cecum flora,43%
same,cecum flora: Bacteroides,cecum flora,1%
same,cecum flora: Clostridium spp.,cecum flora,27%
same,cecum flora: Eubacterium,cecum flora,12%
same,cecum flora: Lactobacillus spp.,cecum flora,6%
same,cecum flora: Ruminococcus,cecum flora,10%
same,decrease of relative numbers of Lachnospira multiparus-like organisms,[3],about 2 fold
virginiamycin,Lactobacillus species in the ileum vs controls,[1]; 28 and 49 days of age,significantly fewer
same,enhancement in feed conversion,[4],7%
same,improvement in growth rate,[4],10%
